In paper PMC6368365, “Didehydro-Cortistatin A Inhibits HIV-1 by Specifically Binding to the Unstructured Basic Region of Tat” (mBio, 2019):

Target: Tat-TAR interaction (Human immunodeficiency virus type 1 group M subtype B, UniProt P69697)
Test: ChIP of FLAG-Tat followed by qRT-PCR of TAR in HeLa-CD4-LTR-Luc cells
Assay type: cell-based, HIV-1
Set-up: expressed in transfected cells; host or cells: HeLa-CD4-LTR-Luc
Settings: compounds 25 nM, 48 h
Source text: FIG 6 dCA binding to Tat disrupts Tat-TAR interaction. (A) EMSA of full-length Tat with TAR in the presence of dCA. Raltegravir (Ralt.) and deleted bulge TAR (ΔTAR) were used as negative controls. Data are representative of n = 3 independent experiments. (B) EMSA of Tat’s basic domain with TAR in the presence of increasing concentrations of dCA to Tat’s basic peptide. Pep B is a peptide encompassing the basic domain of HIV Tat (^45ISYGRKKRRQRRRAP^59). Pep C (^69LSKQPASQPRGDPTG^83) and unlabeled or cold TAR (TARc) were used as negative controls. Neomycin, which binds to Tat and TAR, was used as a positive control. Ratios of compounds (or TARc) concentrations to peptide are shown. Data are representative of n = 3 independent experiments. […] Shown are ITC results from binding of dCA (left) or Tat peptide (right) to TAR at 25°C. […] For the lower plots, results were converted to molar heats and plotted against the molar ratio of dCA or peptide to RNA. […] Luciferase activity was determined relative to protein concentration (Bradford assay) (Fig. S9A). […] Statistical significance was determined using one-way ANOVA with post hoc Tukey’s test with 3 technical replicates. ns, not significant; ***, P < 0.0001. […]
Chromatin immunoprecipitation assay (CHIP). […] The relative proportions of co-immunoprecipitated DNA were determined on the basis of the threshold cycle for qRT-PCR. […]

Tat-TAR interaction, sequence (P69697 whole entry): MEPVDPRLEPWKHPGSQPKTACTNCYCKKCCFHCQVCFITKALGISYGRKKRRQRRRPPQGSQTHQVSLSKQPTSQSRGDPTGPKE

Compound | Tat-TAR interaction in cells (ChIP)
CN(C)C1CC23CCC4(O2)C(=CCC2(C)C(c5ccc6ccncc6c5)=CCC24)C=C3C(O)C1O (centres unmarked) [dCA, didehydro-cortistatin A] | reduced this Tat-TAR interaction to similar levels as FLAG-Tat Mut
Cc1nnc(C(=O)NC(C)(C)c2nc(C(=O)NCc3ccc(F)cc3)c(O)c(=O)n2C)o1 [raltegravir, reference compound] | A Tat-TAR interaction was detected
